{"source": "patent US20150065470A1", "about": "“Steroid Sulfatase Inhibitor Regimen for the Treatment of Endometriosis” (priority 2012, published 2015)", "key": {"[1]": {"target": "T1, STS (Homo sapiens, UniProt P08842)", "T1 sequence (P08842 22-583)": "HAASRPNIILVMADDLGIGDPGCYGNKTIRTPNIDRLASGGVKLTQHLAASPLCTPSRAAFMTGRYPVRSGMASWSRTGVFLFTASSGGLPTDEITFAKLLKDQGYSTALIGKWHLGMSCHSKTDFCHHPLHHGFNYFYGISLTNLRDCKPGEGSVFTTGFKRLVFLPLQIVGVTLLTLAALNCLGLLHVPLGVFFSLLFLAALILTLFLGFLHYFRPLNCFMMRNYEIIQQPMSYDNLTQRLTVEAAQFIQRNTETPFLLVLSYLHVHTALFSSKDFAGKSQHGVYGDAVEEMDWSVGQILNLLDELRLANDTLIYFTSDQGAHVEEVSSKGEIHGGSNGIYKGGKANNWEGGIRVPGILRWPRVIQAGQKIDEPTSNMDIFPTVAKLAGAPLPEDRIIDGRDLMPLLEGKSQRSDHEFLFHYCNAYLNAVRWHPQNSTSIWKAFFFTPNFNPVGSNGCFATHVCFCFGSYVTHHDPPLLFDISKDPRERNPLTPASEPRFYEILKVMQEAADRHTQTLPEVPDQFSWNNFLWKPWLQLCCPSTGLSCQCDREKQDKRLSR", "details": "cited from earlier work"}, "[2]": {"target": "T1, STS", "details": "cited from earlier work", "remark": "listed apart in the source"}, "[3]": {"system": "E2 and P4; T and D4A", "experiment": "Hormone profiles (E2, P4, T, D4A), Example 2", "assay_type": "in vivo, human", "procedure": "Hormone profiles were determined as described in Example 1."}, "[4]": {"target": "T2, STS activity in PBMCs (Homo sapiens, UniProt P08842)", "T2 construct": "Pharmacodynamic properties were investigated by assessment of the STS activity in PBMCs; endogenous in cells; host or cells: peripheral blood mononuclear cells (PBMCs) of dosed women", "T2 sequence (P08842 22-583)": "T1 sequence (P08842 22-583)", "experiment": "STS activity in PBMCs, Example 2 (LC-MS/MS)", "assay_type": "in vivo", "details": "E2MATE 4 mg weekly and/or NETA 10 mg daily for 4 weeks", "method": "(§1) STS activity was determined by spiking specimens with labelled E1-S and by measuring its conversion to E1 per gram protein under standardized incubation conditions using LC-MS/MS. Protein concentration was evaluated with a validated colorimetric assay (Bradford method)."}, "[5]": {"experiment": "Safety, tolerability and post-treatment menstruation cycles, Example 2", "details": "follow-up, ultrasound", "excerpt": "Menstruation cycle length was not influenced by the treatment. […] Sizes of right and left ovary differed slightly for each subject, but no clinically relevant changes were identified by the gynaecologists."}, "[6]": {"target": "T3, Steroid Sulfatase in endometrium (Homo sapiens, UniProt P08842)", "T3 construct": "from tissue; host or cells: endometrium (biopsies) of dosed women", "T3 sequence (P08842 22-583)": "T1 sequence (P08842 22-583)", "experiment": "STS activity in endometrium, Example 2 (LC-MS/MS)", "assay_type": "in vivo", "details": "E2MATE 4 mg weekly and/or NETA 10 mg daily for 4 weeks", "method": "as §1"}}}
{"smiles": "NS(=O)(=O)Oc1ccc2c3c(c(=O)oc2c1)CCCCC3", "values": [{"measurement": "blocking STS activity in both eutopic and ectopic tissues", "setting": "[1]", "result": "effective in blocking STS activity"}]}
{"smiles": "C[C@]12CCC3c4ccc(OS(N)(=O)=O)cc4CCC3C1CCC2=O", "note": "(stereo partly drawn) [EMATE, Estrone-3-o-sulfamate]", "values": [{"measurement": "STS inhibition", "setting": "[2]", "result": "active STS inhibitors"}]}
{"smiles": "C#C[C@]1(OC(C)=O)CC[C@H]2[C@@H]3CCC4=CC(=O)CC[C@@H]4[C@H]3CC[C@@]21C", "note": "[NETA, norethindrone (norethisterone) acetate, reference compound]", "values": [{"measurement": "mean concentration-time profiles in E2 and P4", "setting": "[3]; first cycle up to Day 29, normal increase on Day 43", "result": "suppressed"}, {"measurement": "mean concentration-time profiles for T and D4A", "setting": "[3]; multiple dose administration", "result": "No relevant differences"}, {"measurement": "mean percentage inhibition of STS activity in PBMCs", "setting": "[4]; Day 4", "result": 12, "unit": "%"}, {"measurement": "average inhibition of STS activity in PBMCs", "setting": "[4]", "result": 4, "unit": "%"}, {"measurement": "ovarian size", "setting": "[5]", "result": "no apparent effect"}, {"measurement": "AVG [%] average inhibition of Steroid Sulfatase in endometrium (average effect over time (AUC))", "setting": "[6]", "result": "14.9 (27.0) %"}, {"measurement": "Emax [%] maximal inhibition of Steroid Sulfatase in endometrium", "setting": "[6]", "result": "46.7 (42.8) %"}]}
